Consider 4 compounds from ChEMBL document CHEMBL4354872, “Use of Non-Natural Amino Acids for the Design and Synthesis of a Selective, Cell-Permeable MALT1 Activity-Based Probe” (J Med Chem, 2020).

The target in assay [1] is T1, Mucosa-associated lymphoid tissue lymphoma translocation protein 1 (Homo sapiens) (UniProt Q9UDY8).
T1 sequence (whole entry): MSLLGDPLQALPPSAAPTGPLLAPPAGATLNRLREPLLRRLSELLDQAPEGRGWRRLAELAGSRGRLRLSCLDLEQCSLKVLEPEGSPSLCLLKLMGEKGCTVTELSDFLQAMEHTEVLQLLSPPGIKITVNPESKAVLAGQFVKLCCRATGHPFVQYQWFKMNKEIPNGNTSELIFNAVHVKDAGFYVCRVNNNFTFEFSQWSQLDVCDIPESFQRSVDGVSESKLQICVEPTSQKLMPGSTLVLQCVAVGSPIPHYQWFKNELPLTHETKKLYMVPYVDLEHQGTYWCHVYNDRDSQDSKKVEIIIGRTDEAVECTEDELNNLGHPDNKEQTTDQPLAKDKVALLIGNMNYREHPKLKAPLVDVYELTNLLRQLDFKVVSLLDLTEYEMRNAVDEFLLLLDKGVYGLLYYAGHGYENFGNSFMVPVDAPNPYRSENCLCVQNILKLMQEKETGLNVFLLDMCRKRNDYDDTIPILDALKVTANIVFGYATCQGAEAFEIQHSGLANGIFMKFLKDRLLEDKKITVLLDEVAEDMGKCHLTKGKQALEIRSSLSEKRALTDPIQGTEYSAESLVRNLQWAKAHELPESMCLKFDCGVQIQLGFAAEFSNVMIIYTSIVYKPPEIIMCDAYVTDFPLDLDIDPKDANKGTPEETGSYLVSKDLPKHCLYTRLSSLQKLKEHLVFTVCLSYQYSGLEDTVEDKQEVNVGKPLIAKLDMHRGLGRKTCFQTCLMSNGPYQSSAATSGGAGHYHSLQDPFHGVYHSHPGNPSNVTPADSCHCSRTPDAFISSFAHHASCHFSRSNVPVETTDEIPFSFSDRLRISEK
The experiment in a line: Inhibition of full length wild type human N-terminal GST-tagged MALT1 catalytic domain (325 to 760 residues) expressed in Escherichia coli BL21 (DE3) assessed as increase in fluorescence at 0.5 uL using Ac-LRSR-AMC as substrate preincubated for 20 mins followed by substrate addition measured after 60 to 120 mins by fluorescence plate reader assay.

For assay [2], the target named is T2, Cathepsin B (Homo sapiens, UniProt P07858). The experiment in a line: Inhibition of recombinant human cathepsin B expressed in Escherichia coli BL21 (DE3) assessed as increase in fluorescence at 0.5 uL using zRR-AMC as substrate measured after 60 to 80 mins by fluorescence plate reader assay.
Assay [3] addresses T3, Mucosa-associated lymphoid tissue lymphoma translocation protein 1 (Homo sapiens, UniProt Q9UDY8).
T3 sequence (Q9UDY8 whole entry): T1 sequence (whole entry)
The experiment in a line: Inhibition of […] wild type human N-terminal GST-tagged MALT1 catalytic domain (325 to 760 residues) expressed in Escherichia coli BL21 (DE3) using Ac-LVPipR-ACC as substrate measured after 2 hrs by microplate reader assay.

Assay [4] concerns the target T1, Mucosa-associated lymphoid tissue lymphoma translocation protein 1 (Homo sapiens). The experiment in a line: Inhibition of […] wild type human N-terminal GST-tagged MALT1 catalytic domain (325 to 760 residues) expressed in Escherichia coli BL21 (DE3) assessed as inactivation rate constant using Ac-LVPipR-ACC as substrate measured after 2 hrs by microplate reader assay.

The target in assay [5] is T2, Cathepsin B. The experiment in a line: Inhibition of recombinant human cathepsin B expressed in Escherichia coli BL21 (DE3) using zRR-AMC as substrate measured after 2 hrs by fluorescence plate reader assay.
In assay [6] the target is T2, Cathepsin B. In words: Inhibition of recombinant human cathepsin B expressed in Escherichia coli BL21 (DE3) assessed as inactivation rate constant using zRR-AMC as substrate measured after 2 hrs by fluorescence plate reader assay.
Assay [7] concerns the target T1, Mucosa-associated lymphoid tissue lymphoma translocation protein 1 (Homo sapiens). In words: Covalent binding affinity to Streptag2-tagged MALT1 stably reconstituted in human knockout Jurkat cells assessed as PMA/ionomycin stimulated ABP labeling of MALT1 by measuring cleavage of CYLD substrate using CYLD as substrate at 3 uM pretreated for PMA/ionomycin with 30 mins followed by compound treatment and further incubated for 3 hrs by Western blot analysis. It counts as cell-based.

The species named for another assay is Homo sapiens. The experiment in a line: Covalent binding affinity to MALT1 C453/A mutant (unknown origin) assessed as PMA/ionomycin stimulated ABP labeling of MALT1 by measuring cleavage of CYLD substrate using CYLD as substrate at 3 uM pretreated with PMA/ionomycin for 30 mins followed by compound treatment and further incubated for 3 hrs by Western blot analysis. (A western blot detects proteins with antibodies after separation by electrophoresis.)

The target of assay [8] is T1, Mucosa-associated lymphoid tissue lymphoma translocation protein 1 (Homo sapiens). In words: Covalent binding affinity to MALT1 in wild type human Jurkat cell lysate assessed as PMA/ionomycin stimulated ABP labeling by protein-compound adduct formation at 3 uM pretreated with PMA/ionomycin for 30 mins followed by compound treatment after 3 hrs by laser imaging analysis. The assay is classed as subcellular.

Assay [9] has as its target T2, Cathepsin B. In words: Covalent binding affinity to cathepsin B in wild type human Jurkat cell lysate assessed as ABP labeling by protein-compound adduct formation at 3 uM after 3 hrs by laser imaging analysis. It counts as subcellular.
In assay [10] the target is T1, Mucosa-associated lymphoid tissue lymphoma translocation protein 1 (Homo sapiens). In words: Competitive binding affinity to MALT1 in wild type human Jurkat cell lysate assessed as PMA/ionomycin stimulated ABP labeling by protein-compound adduct formation at 3 uM pretreated with 25 uM of MALT1 inhibitor s-mepazine for 2 hrs followed by PMA/ionomycin stimulation for 30 mins and subsequent compound addition measured after 3 hrs by Western blot analysis. It counts as subcellular.

For assay [11] the target is unchanged. The experiment in a line: Competitive binding affinity to MALT1 in wild type human Jurkat cell lysate assessed as PMA/ionomycin stimulated ABP labeling by protein-compound adduct formation at 3 uM pretreated with 25 uM of MALT1 inhibitor z-VRPR-FMK for 2 hrs followed by PMA/ionomycin stimulation for 30 mins and subsequent compound addition measured after 3 hrs by Western blot analysis. It counts as subcellular.

The target of assay [12] is T2, Cathepsin B. In words: Competitive binding affinity to cathepsin B in wild type human Jurkat cell lysate assessed as PMA/ionomycin stimulated ABP labeling by protein-compound adduct formation at 3 uM pretreated with 25 uM of MALT1 inhibitor z-VRPR-FMK for 2 hrs followed by PMA/ionomycin stimulation for 30 mins and subsequent compound addition measured after 3 hrs by Western blot analysis. The assay is classed as subcellular.

The target in assay [13] is T2, Cathepsin B. In words: Competitive binding affinity to cathepsin B in wild type human Jurkat cell lysate assessed as PMA/ionomycin stimulated ABP labeling by protein-compound adduct formation at 3 uM pretreated with 5 uM of MALT1 inhibitor CA-074ME for 2 hrs followed by PMA/ionomycin stimulation for 30 mins and subsequent compound addition measured after 3 hrs by Western blot analysis. It counts as subcellular.

Assay [14] deals with T1, Mucosa-associated lymphoid tissue lymphoma translocation protein 1 (Homo sapiens). The experiment in a line: Inhibition of MALT1 in human HBL1 assessed as assessed as reduction in Relb substrate cleavage after 5 hrs in presence of proteasome inhibitor by Western blot analysis.
Assay [15] has the same target. In words: Binding affinity to MALT1 in human Jurkat cells assessed as ABP labeling of protein at 3 uM pretreated with compound for 3 hrs followed by PMA/ionomycin stimulation for 30 mins by laser imaging analysis. The assay is classed as cell-based.
For assay [16], the target named is T2, Cathepsin B. The experiment in a line: Binding affinity to cathepsin B in human Jurkat cells assessed as ABP labeling of protein at 3 uM pretreated with compound for 3 hrs followed by PMA/ionomycin stimulation for 30 mins by laser imaging analysis. It counts as cell-based.
Assay [17] concerns the target T1, Mucosa-associated lymphoid tissue lymphoma translocation protein 1 (Homo sapiens). The experiment in a line: Inhibition of MALT1 in human HBL1 assessed as assessed as reduction in Relb substrate cleavage at 3 to 30 uM after 5 hrs in presence of proteasome inhibitor by Western blot analysis.
Assay [18] concerns the target T2, Cathepsin B. In words: Inhibition of recombinant human cathepsin B expressed in Escherichia coli BL21 (DE3) assessed as increase in fluorescence at 0.5 uL using zRR-AMC as substrate measured after 60 to 80 mins by fluorescence plate reader assay relative to Z-VRPR-FMK.

The source made the active and inactive calls. The calls are words filed in the database; no cut-off is given here. A value given as a limit tells only on which side of the number the result lay.

As to `CC1=CC(C)=[N+]2C1=C(CCCc1cn(CCCCCC(=O)N[C@@H](CC(C)C)C(=O)N[C@H](C(=O)N[C@@H](CO)C(=O)N[C@@H](CCCNC(=N)N)C(=O)COC(=O)c3c(C)cccc3C)C(C)C)nn1)c1c(C)cc(C)n1[B-]2(F)F`, the inhibition result (in [1]; on Cathepsin B [2]) was “Active” in each case. Moreover, the Ki (in [3]; at Cathepsin B [5]) was 210 nM throughout. The results for the Kinact (in assay [4]; at Cathepsin B [6]) were 1.1 ×10⁻³ /s and 4.1 ×10⁻³ /s, respectively. The outcome (in assay [7]; in assay [8]; at Cathepsin B [9]; in [15]; on Cathepsin B [16]) was Active. For the same compound, the outcome (in the assay filed under Homo sapiens; in assay [10]; in [11]; at Cathepsin B [12]; at Cathepsin B [13]) was inactive. In addition, the inhibition entry in assay [14] was “Dose-dependent effect”.
On to `CC1=CC(C)=[N+]2C1=Cc1ccc(CCC(=O)N[C@@H](CC(C)C)C(=O)N[C@@H](CCCNC(=N)N)C(=O)N[C@@H](CO)C(=O)N[C@@H](CCCNC(=N)N)C(=O)COC(=O)c3c(C)cccc3C)n1[B-]2(F)F`, for which the inhibition entry (in assay [1]; on Cathepsin B [2]) was “Active” in each case. Further, the Ki amounted to 340 nM in [3] and 630 nM at Cathepsin B [5]. For the same compound, the Kinact in assay [4] is 2 ×10⁻³ /s; on Cathepsin B [6], 9.6 ×10⁻³ /s. The result (in assay [7]; in [8]; on Cathepsin B [9]; in assay [15]; on Cathepsin B [16]) was Active. The result in the assay listed under Homo sapiens was inactive. Besides, in assay [17], the inhibition entry was “inactive”.
As to `CC(C)[C@H](NC(=O)OCc1ccccc1)C(=O)N[C@@H](CCCNC(=N)N)C(=O)N1CCC[C@H]1C(=O)N[C@@H](CCCNC(=N)N)C(=O)CF`, the inhibition entry (in [1]; on Cathepsin B [2]) was “Active” in each case.
Consider `CC1=CC(C)=[N+]2C1=C(CCCc1cn(CCCCCC(=O)N[C@@H](CC(C)C)C(=O)N[C@H](C(=O)N3CCCC[C@H]3C(=O)N[C@@H](CCCNC(=N)N)C(=O)COC(=O)c3c(C)cccc3C)C(C)C)nn1)c1c(C)cc(C)n1[B-]2(F)F`, for which the inhibition entry (in assay [1]; on Cathepsin B [2]) was “Active” in each case. The fold change (FC) on Cathepsin B [18] is 50. For the same compound, the results for the Ki (in assay [3]; at Cathepsin B [5]) were 170 nM and above 10000 nM, respectively. Besides, the Kinact in [4] was 1.7 ×10⁻³ /s. Besides, the outcome in assay [7] and in assay [8] was Active. The result (in the assay listed under Homo sapiens; on Cathepsin B [9]; in [15]; on Cathepsin B [16]) was inactive. Further, the inhibition result in assay [14] was “Dose-dependent effect”.

The Ki is a measure of affinity in units of concentration, obtained from inhibition or displacement.
